We go through nine compounds from patent US20020077365A1, “Method for increasing the effectiveness of antiinfective” (The University of Texas System, priority 2000, published 2002).

Read-outs that look alike come from different tables or passages of the source.

Assay [1] has as its system Saccharomyces cerevisiae INVSC1 and YMR4. The assay is described as follows: Yeast growth selection in drug (plates / liquid turbidity). The format is cell-based. The text has this: Expression of AtPGP-1 in yeast: The AtPGP-1 cDNA (Arabidopsis thaliana MDR gene, accession #X61370) was subdloned into pVT101 downstream of the ADH promoter to create the AtPGP-1/pVT101 construct. AtPGP-1/pVT101 and pVT101 were transformed into Saccharomyces cerevisiae INVSC1 (genotype: MAT, his3-1, leu2, trp1-289, ura3-52) and YMR4 (genotype: MAThis3-11,15, leu2-3, 112ura35, can Res pho5, 3::ura31) by a PEG lithium acetate procedure (Eble, 1992) and selected on uracil dropout medium.
Yeast Growth: Yeast were grown at 30° C. under conditions of constant selection for uracil auxotrophy. YNB (Bio101, Vista, Calif.) supplemented with CSM (uracil dropout) and 2% glucose was used to grow strains having pVT101 constructs. Cycloheximide (Sigma Chemical, St. Louis, Mo.) was added to liquid media or spread on solid media to achieve a final concentration of 500 ng/ml. Nigericin (Sigma Chemical, St. Louis, Mo.) was added to liquid media or spread on solid media to achieve a final concentration of 25 μg/ml. Yeast strains used in cycloheximide selection assays were always propagated in the presence of the cycloheximide on plates and then streaked onto new plates containing drug or no drug, such that induced resistance existed in each strain at the time of the start of the assay. For selection assays on plates, single colonies were streaked; for selection in liquid media 0.01 ml of saturated culture was added to fresh media containing the drug. The plates shown in figures were grown for 3-5 days before photographs were taken. Yeast selection assays in liquid media were quantitated by turbidity as measured by absorbance at OD600.
The same result was obtained when the yeast strains were cultured in nigericin (FIG. 3C, FIG. 3D, FIG. 5B, FIG. 5C). In FIG. 3C and 3D, starting from the top of the dish clockwise, the cells are as follows: INVSC1 (wild-type) overexpressing AtPGP-1, YMk4 containing the vector alone, YMR4 overexpressing AtPGP-I, and INVSC1 containing the vector alone. When grown without drug, all the cells grow (FIG. 3C). […]

The test system of assay [2] is Arabidopsis thaliana plants (wild-type and AtPGP-1 overexpressing). The format is in vivo. The note with it: for germination rate: substance alone (cycloheximide 500 ng/ml or phosphatase inhibitor 1 mM), after 10-20 days; for germination: phosphatase inhibitor 1 mM plus cycloheximide 500 ng/ml. As to the method: Plant Growth: Arabidopsis seeds were sown in a solid germination media containing MS salts (Sigma Chemical, St. Louis, Mo.), 2% sucrose, 0.8% agar, and vitamins (Valvekens et al., 1992). For selection assays, one of the following, or a combination of both, was added to media (cooled to less than 50° C. before adding) immediately prior to pouring into plates: cycloheximide at a final concentration of 500 ng/ml; α,β-methyleneadenosine 5′-diphosphate at a final concentration of 1 mM. Plant growth was measured by germination percentage after 10-20 days. All other materials and methods were discussed above in Example 2.

Assay [3] concerns Arabidopsis thaliana WS wild-type plants. The assay is described as follows: Plant sensitivity to herbicides with or without ecto-phosphatase inhibitor. The note with it: inhibitor 5 μg/ml; surflan solution 0.2-20 μl/ml in germination media. The format is in vivo. As to the method: Increasing Plant Sensitivity to Herbicides: Arabidopsis thaliana WS wild-type plants were plated on germination media containing two commonly used herbicides, surflan and pendimethalin, in the presence and absence of an ecto-phosphatase inhibitor of Formula II and monitored for their growth in a 22° C. incubator under constant fluorescent illumination.
More specifically, germination media was prepared containing 20 μl/ml, 10 μl/ml, 2 μl/ml, 1 μl/ml, and 0.2 μl/ml of a surflan solution made at the manufacturer's recommended concentration. Compound of Formula II was added to a portion of the germination media at a final concentration of 5 μg/ml.
Arabidopsis thahiana WS wild-type seeds were surface sterilized in a 20% bleach solution for 20 minutes, washed three times in double distilled waster, and resuspended in 0.1% agarose solution. The seeds were then pipetted onto plates containing approximately 3 ml of germination media containing the various concentrations of surflan with and without compound of Formula II. All plates were placed in a 22° C. incubator under constant fluorescent illumination. Growth was assessed daily.
Similar experiments were performed with pendimethalin in the presence and absence of compound of Formula II.

The subject of assay [4] is S. cerevisiae yeast cells (YMR4 and INVSC, with or without AtPGP-1). Briefly: Yeast growth in suspension with extracellular ATP, adenosine, phosphate and cycloheximide (turbidity OD600). The format is cell-based. The note with it: for yeast growth in high levels of ATP: 100 mM ATP, FIG. 13; for effect on resistance to cycloheximide: YMR4 cells, added to media with cycloheximide, 72 hours, FIG. 14. On the procedure:
Cell lines: Cell lines were the same as those described above in Example 2 and 3. YMR4 MDR1 is the phosphatase mutant yeast strain overexpressing AtPGP-1; YMR4 pVT11 contains vector alone; INVSC MDR1 is the wild-type yeast strain overexpressing AtPGP-1; and INVSC pVT101 contains vector alone.
Selection in drug: To create drug resistant yeast strains, all four cell lines were grown up in the presence of 500 ng/ml of cycloheximide, and transferred to other cycloheximide containing plates after a period of four to six days. This transfer of cell lines and subculturing continued such that the yeast cells grew in the presence of cycloheximide for a period of at least a month.
Growth of cells in suspension for ATP and drug selection experiments: Cells were transferred into 5 ml YNB -URA liquid media for turbidity measurements. All cell lines (both non-drug selected and drug-selected) were grown in media with the addition of either nothing, 500 ng/ml cycloheximide, 100 mM ATP, or 500 ng/ml cycloheximide and 100 mM ATP. Turbidity readings were taken after 48 hours.
Growth of cell lines in suspension for salvage pathway experiments: All cell lines were grown in liquid media either containing drug (for the drug selected lines) or not containing drug (for the non-drug selected lines). When the cultures reached a turbidity of 1.00 as measured at a wavelength of 600 in a spectrophotometer (OD600=1.00), 10 μl of each culture was then removed and placed in either media with nothing added, 3 mM potassium phosphate; 3 mM adenosine; 9 mM potassium phosphate and 3 mM adenosine (for controls); potassium phosphate and cycloheximide; adenosine and cycloheximide; adenosine, cycloheximide, and potassium phosphate. Cell cultures were further grown for 72 hours, and their turbidity was determined by OD600 readings on a spectrophotometer.

Assay [5] deals with ecto-apyrase of plasma membrane of cholinergic nerve terminal of Torpedo marmorata electric organs. Conditions: Marti et al., 1996; cited from earlier work.
Assay [6] relates to wild-type yeast strain INVSC with plasmid pvtl01-U. The assay is described as follows: Yeast filter disk zone of inhibition with fungicide chlorothalonil with or without ecto-phosphatase inhibitor. The format is cell-based, S. cerevisiae. Conditions: plates without ecto-phosphatase inhibitor, 48 hours. As to the method: Increasing Yeast Sensitivity to Fungicide. Additional experiment were performed to test the ability of ecto-phosphatase inhibitors to increase the effectiveness of the commonly used fungicide chlorothalonil. Yeast was plated on media with or without an ecto-phosphatase inhibitor of Formula X where a paper filter disk soaked in the fungicide was added to the plate. After 48 hours, the zone of inhibition of yeast growth around the filter disk was calculated.
The wild-type yeast strain INVSC with plasmid pvtl01-U (for selection on media lacking uracil) was used in all experiments and each experiment was performed in triplicate. Media used was made by combining YNB (Bio 101, Vista, Calif.), the drop out supplement CSM-URA (Bio 101, Vista, CA), and glucose in water. […]
Twenty μl of an overnight saturated culture of yeast was plated onto each plate, spread, and allowed to dry for 20 minutes. […] The zone of inhibition of yeast growth around the disk was assessed after 48 hours.
Plates with chlorothalonil disks indeed contained a zone of inhibition surrounding the disk. […] The zone of inhibition was calculated by measuring the radius from the center of the disk to the point of noticeable yeast growth (at least 10 measurements per plate), averaging the radii measurements, and using the average radius of the plates to calculate the circular area of the zone of inhibition.

Setting [7] is: YMR4 (extracellular phosphatase deficient), vector alone, cycloheximide 500 ng/ml or nigericin 25 μg/ml.

Regarding `C[C@@H]1C[C@@H]([C@H](O)CC2CC(=O)NC(=O)C2)C(=O)[C@@H](C)C1` [cycloheximide], the “yeast growth in drug” value in assay [1] (setting [7]) is reported as “did not grow”; in assay [1] (wild-type INVSC1, cycloheximide 500 ng/ml) it was “did grow”. Moreover, the germination rate worked out at 50% in assay [2] (AtPGP-1 overexpressing plants) and 2% in assay [2] (wild-type plants). In the case of `Cc1cccc(NS(=O)(=O)c2ccc(-c3ccccc3)cc2)c1` [Formula II], the “effectiveness of surflan as weed killer in presence of inhibitor” value in assay [3] is reported as “equally effective weed killer at a five fold less concentration”. Turning to `Nc1ncnc2c1ncn2[C@@H]1O[C@H](COP(=O)(O)OP(=O)(O)OP(=O)(O)O)[C@@H](O)[C@H]1O` [ATP], the “yeast growth in high levels of ATP and drug” value in assay [4] (100 mM ATP plus 500 ng/ml cycloheximide, cell lines previously resistant to drug) is recorded as “unable to grow”. For the same compound, the “yeast growth in high levels of ATP” value in assay [4] (cells not previously selected in drug) is reported as “able to grow”; in assay [4] (cells previously grown in drug (cycloheximide-selected), not overexpressing AtPGP-1), “not able to grow”.

Regarding `CO[C@@H]1C[C@@H](C[C@H]2CC[C@H](C)[C@H]([C@@H](C)C(=O)O)O2)O[C@]2(O[C@](C)([C@H]3CC[C@@](C)([C@@H]4O[C@@H]([C@H]5O[C@@](O)(CO)[C@H](C)C[C@@H]5C)C[C@@H]4C)O3)C[C@H]2C)[C@@H]1C` [nigericin], in assay [1] (setting [7]), the “yeast growth in drug” value was “reduced growth”. With `O=P(O)(O)O` [phosphate, potassium phosphate], the “effect on resistance to cycloheximide” value in assay [4] is on record as “did not enhance resistance”.

Regarding `Nc1ncnc2c1ncn2[C@@H]1O[C@H](COP(=O)(O)CP(=O)(O)O)[C@@H](O)[C@H]1O` [α,β-methyleneadenosine 5′-diphosphate], in assay [2] (AtPGP-1 overexpressing plants), the germination result is given as “no germination at all” and the germination rate was determined as 83%. In addition, in assay [2] (wild-type plants), the germination result was “no germination at all” and the germination rate is 90%. On to `Nc1ncnc2c1ncn2[C@@H]1O[C@H](CO)[C@@H](O)[C@H]1O` [adenosine], for which, in assay [4], the “effect on resistance to cycloheximide” value is recorded as “did not enhance resistance”. Take `Cc1ccc(C(=O)Nc2ccc(S(=O)(=O)O)c3cc(S(=O)(=O)O)cc(S(=O)(=O)O)c23)cc1NC(=O)c1cccc(NC(=O)Nc2cccc(C(=O)Nc3cc(C(=O)Nc4ccc(S(=O)(=O)O)c5cc(S(=O)(=O)O)cc(S(=O)(=O)O)c45)ccc3C)c2)c1` [Suramin, 8,8′[Carbonylbis[imino-3,1-phenylenecarbonylimino(4-methyl-3,1-phenylene)carbonylimino]]bis-1,3,5-naphthalenetrisulfonic acid]: the “inhibition of ecto-apyrase activity” value in assay [5] was “potent non-competitive inhibitor”. With `N#Cc1c(Cl)c(Cl)c(Cl)c(C#N)c1Cl` [chlorothalonil], the “average radius of inhibition” value in assay [6] was 0.33 in.
